These results are taken from US20240279283A1, “CYCLIC PEPTIDE ANTIBIOTICS” (priority 2021, published 2024).

Bridge positions count the residues as written; N and C are the ends. Square brackets hold non-standard residues; d marks the D form. Peptide text beside a SMILES is read from it. NMePhe(4-Cl) = CN[C@@H](Cc1ccc(Cl)cc1)C(=O)O; Phe(4-Cl) = N[C@@H](Cc1ccc(Cl)cc1)C(=O)O; Gly(Nα-CH2CH2CONH2) = NC(=O)CCNCC(=O)O; 1Nal = N[C@@H](Cc1cccc2ccccc12)C(=O)O; His(π-Me) = Cn1cncc1C[C@H](N)C(=O)O; NMeY = CN[C@@H](Cc1ccc(O)cc1)C(=O)O; Gly(N(CH2)3NH2) = NCCCNCC(=O)O; aThr = C[C@H](O)[C@H](N)C(=O)O; Abu = CC[C@H](N)C(=O)O

Common to all, as to type: cell-based
Settings in all cases: LB broth, 5×10^5 CFU/ml, 37° C., 18 hours, scored by eye

The test system of one assay is K. pneumoniae ATCC43816. Nature of the assay: Minimum Inhibitory Concentration (MIC) determination, K. pneumoniae ATCC43816. On the set-up: unit not given here. In a few lines: (§1)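 Peptides, diluted two-fold in LB broth from 10 mM DMSO stocks, were inoculated with 5×10^5 CFU/ml of each strain. Incubation was 18 h at 37 °C without shaking. MIC is the lowest concentration preventing visible growth, scored by eye.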

The subject of a further assay is E. cloacae ATCC222. Description: Minimum Inhibitory Concentration (MIC) determination, E. cloacae ATCC222. Set-up: unit not given here. In a few lines: as §1
Another assay has as its system E. coli 25922 IMP. Nature of the assay: Minimum Inhibitory Concentration (MIC) determination, E. coli 25922 IMP. In a few lines:
as §1

A further assay concerns E. coli BW25113. Nature of the assay: Minimum Inhibitory Concentration (MIC) determination, E. coli BW25113. Set-up: unit not given here. Summed up:
as §1

The next assay relates to E. coli 25922. Nature of the assay: Minimum Inhibitory Concentration (MIC) determination, E. coli 25922. On the set-up: unit not given here. Summed up: as §1

On to `CC[C@@H](C)[C@H]1NC(=O)[C@@H](Cc2ccccc2)NC(=O)CSC[C@H](C(=O)NCC(N)=O)NC(=O)[C@@H](Cc2cncn2C)NC(=O)[C@@H](CCCNC(=N)N)NC(=O)[C@@H](Cc2cnc[nH]2)NC(=O)[C@@H](Cc2ccccc2)N(C)C(=O)[C@@H](CCCNC(=N)N)NC(=O)[C@@H](CO)NC(=O)CNC(=O)[C@@H](Cc2cnc[nH]2)NC(=O)[C@@H](Cc2cccc3ccccc23)NC1=O` (racemic) [Compound 17], for which the “MIC K. pneumoniae ATCC43816 Wuxi::MIC” value in the assay on K. pneumoniae ATCC43816 came to 37.5. Besides, the “MIC E. cloacae ATCC222 WUXI::MIC” value against E. cloacae ATCC222 is 3.1. In addition, the “MIC E. coli 25922 IMP WUXI::MIC” value with E. coli 25922 IMP came to 0.002. For the same molecule, in the assay on E. coli BW25113, the “MIC E. coli BW25113 WUXI::MIC” value was 50. Moreover, the “MIC E. coli 25922 WUXI::MIC” value against E. coli 25922 was 13.

With `CC(C)[C@@H]1NC(=O)[C@H](Cc2ccccc2)NC(=O)CSC[C@@H](C(=O)NCC(N)=O)NC(=O)[C@H](Cc2cncn2C)NC(=O)[C@H](CCCNC(=N)N)NC(=O)[C@H](Cc2cnc[nH]2)NC(=O)[C@H](Cc2ccc(O)cc2)N(C)C(=O)[C@H](CCCNC(=N)N)NC(=O)[C@H](CO)NC(=O)CNC(=O)[C@H](Cc2cnc[nH]2)NC(=O)[C@H](Cc2c[nH]c3ccccc23)NC1=O` (racemic) [Compound 14], the “MIC K. pneumoniae ATCC43816 Wuxi::MIC” value against K. pneumoniae ATCC43816 is 25. Besides, the “MIC E. cloacae ATCC222 WUXI::MIC” value against E. cloacae ATCC222 came to 1.19. In addition, the “MIC E. coli 25922 IMP WUXI::MIC” value in the assay on E. coli 25922 IMP was 0.0119. In the assay with E. coli BW25113, the “MIC E. coli BW25113 WUXI::MIC” value was determined as 37.5. Further, in the assay with E. coli 25922, the “MIC E. coli 25922 WUXI::MIC” value is reported as 25.

`CC[C@@H]1NC(=O)[C@H](Cc2ccccc2)NC(=O)CSC[C@@H](C(=O)NCC(N)=O)NC(=O)[C@H](Cc2cncn2C)NC(=O)[C@H](CCCNC(=N)N)NC(=O)[C@H](Cc2c[nH]cn2)NC(=O)[C@H](Cc2ccc(O)cc2)N(C)C(=O)[C@H](CCCNC(=N)N)NC(=O)[C@H]([C@H](C)O)NC(=O)CNC(=O)[C@H](Cc2c[nH]cn2)NC(=O)[C@H](Cc2cccc3ccccc23)NC1=O` [Compound 31] ({CH2CO}-F[Abu][1Nal]HG[aThr]R[NMeY]HR[His(π-Me)]CG-NH2; thioether N-12): in the assay on K. pneumoniae ATCC43816, the “MIC K. pneumoniae ATCC43816 Wuxi::MIC” value is 50. For the same molecule, the “MIC E. cloacae ATCC222 WUXI::MIC” value in the assay with E. cloacae ATCC222 came out at 6.3. For the same molecule, in the assay on E. coli 25922 IMP, the “MIC E. coli 25922 IMP WUXI::MIC” value was 0.016. Further, in the assay with E. coli BW25113, the “MIC E. coli BW25113 WUXI::MIC” value is 50. In addition, the “MIC E. coli 25922 WUXI::MIC” value against E. coli 25922 came to 25.

On to `CC[C@@H]1NC(=O)[C@H](Cc2ccc(Cl)cc2)NC(=O)CSC[C@@H](C(=O)NCC(N)=O)NC(=O)[C@H](Cc2cncn2C)NC(=O)[C@H](CCCNC(=N)N)NC(=O)[C@H](Cc2c[nH]cn2)NC(=O)[C@H](Cc2ccc(O)cc2)N(C)C(=O)[C@H](CCCNC(=N)N)NC(=O)[C@H](CO)NC(=O)CNC(=O)[C@H](Cc2c[nH]cn2)NC(=O)[C@H](Cc2cccc3ccccc23)NC1=O` [Compound 22] ({CH2CO}-[Phe(4-Cl)][Abu][1Nal]HGSR[NMeY]HR[His(π-Me)]CG-NH2; thioether N-12), for which, in the assay on K. pneumoniae ATCC43816, the “MIC K. pneumoniae ATCC43816 Wuxi::MIC” value worked out at 13. In the assay with E. cloacae ATCC222, the “MIC E. cloacae ATCC222 WUXI::MIC” value came out at 0.39. The “MIC E. coli 25922 IMP WUXI::MIC” value in the assay on E. coli 25922 IMP came out at 0.002. Also, the “MIC E. coli BW25113 WUXI::MIC” value against E. coli BW25113 is 25. For the same molecule, in the assay with E. coli 25922, the “MIC E. coli 25922 WUXI::MIC” value amounted to 6.3.

Turning to `CC[C@@H]1NC(=O)[C@H](Cc2ccccc2)NC(=O)CSC[C@@H](C(=O)NCC(N)=O)NC(=O)[C@H](Cc2cncn2C)NC(=O)[C@H](CCCNC(=N)N)NC(=O)[C@H](Cc2c[nH]cn2)NC(=O)[C@H](Cc2ccc(Cl)cc2)N(C)C(=O)[C@H](CCCNC(=N)N)NC(=O)[C@H](CO)NC(=O)CNC(=O)[C@H](Cc2c[nH]cn2)NC(=O)[C@H](Cc2cccc3ccccc23)NC1=O` [Compound 33] ({CH2CO}-F[Abu][1Nal]HGSR[NMePhe(4-Cl)]HR[His(π-Me)]CG-NH2; thioether N-12), the “MIC K. pneumoniae ATCC43816 Wuxi::MIC” value against K. pneumoniae ATCC43816 is on record as 25. Also, the “MIC E. cloacae ATCC222 WUXI::MIC” value in the assay on E. cloacae ATCC222 came out at 1.6. In addition, the “MIC E. coli 25922 IMP WUXI::MIC” value against E. coli 25922 IMP is 0.0005. For the same molecule, the “MIC E. coli BW25113 WUXI::MIC” value against E. coli BW25113 is reported as 25. Moreover, the “MIC E. coli 25922 WUXI::MIC” value against E. coli 25922 is given as 13.

For the molecule `CC[C@@H]1NC(=O)[C@H](Cc2ccccc2)NC(=O)CSC[C@@H](C(=O)NCC(N)=O)NC(=O)[C@H](Cc2cncn2C)NC(=O)[C@H](CCCNC(=N)N)NC(=O)[C@H](Cc2c[nH]cn2)NC(=O)[C@H](Cc2ccc(O)cc2)N(C)C(=O)[C@H](CCCNC(=N)N)NC(=O)[C@H](CO)NC(=O)CN(CCCN)C(=O)[C@H](Cc2c[nH]cn2)NC(=O)[C@H](Cc2cccc3ccccc23)NC1=O` [Compound 29] ({CH2CO}-F[Abu][1Nal]H[Gly(N(CH2)3NH2)]SR[NMeY]HR[His(π-Me)]CG-NH2; thioether N-12), the “MIC K. pneumoniae ATCC43816 Wuxi::MIC” value in the assay on K. pneumoniae ATCC43816 is on record as 3.1. For the same molecule, the “MIC E. cloacae ATCC222 WUXI::MIC” value in the assay with E. cloacae ATCC222 worked out at 0.1. For the same molecule, the “MIC E. coli 25922 IMP WUXI::MIC” value in the assay with E. coli 25922 IMP turned out to be 0.001. Further, the “MIC E. coli BW25113 WUXI::MIC” value in the assay on E. coli BW25113 turned out to be 6.3. Further, the “MIC E. coli 25922 WUXI::MIC” value against E. coli 25922 is reported as 1.6.

With `CC[C@@H]1NC(=O)[C@H](Cc2ccccc2)NC(=O)CSC[C@@H](C(=O)NCC(N)=O)NC(=O)[C@H](Cc2cncn2C)NC(=O)[C@H](CCCNC(=N)N)NC(=O)[C@H](Cc2c[nH]cn2)NC(=O)[C@H](Cc2ccc(O)cc2)N(C)C(=O)[C@H](CCCNC(=N)N)NC(=O)[C@H](CO)NC(=O)CN(CCC(N)=O)C(=O)[C@H](Cc2c[nH]cn2)NC(=O)[C@H](Cc2cccc3ccccc23)NC1=O` [Compound 30] ({CH2CO}-F[Abu][1Nal]H[Gly(Nα-CH2CH2CONH2)]SR[NMeY]HR[His(π-Me)]CG-NH2; thioether N-12), the “MIC K. pneumoniae ATCC43816 Wuxi::MIC” value in the assay with K. pneumoniae ATCC43816 came out at 100. Further, the “MIC E. cloacae ATCC222 WUXI::MIC” value with E. cloacae ATCC222 is listed as 1.6. Also, the “MIC E. coli 25922 IMP WUXI::MIC” value in the assay with E. coli 25922 IMP was found to be 0.016. In the assay on E. coli BW25113, the “MIC E. coli BW25113 WUXI::MIC” value is 50. The “MIC E. coli 25922 WUXI::MIC” value against E. coli 25922 is 25.
